Test results: patent EP4800016A1, “METTL3 INHIBITOR” (Hangzhou Bangshun Pharmaceutical Co., Ltd., priority 2023, dated 2025)

Experiments:
[1] = Rat pharmacokinetic test, intravenous injection; format: in vivo; settings: male, SD, plasma, rats, 2 mg/kg, average of 3 rats
Description: 3.1 Experimental Animals: Male SD rats, weighing 190-230 g, 3 rats per compound 3.2 Experimental Design: All animals were fasted overnight (10-14 hours) the day before admin istration and fed 4 hours after admin istration. For intravenous injection, the drug vehicle was 5% DMA + 5% Solutol + 90% Saline (DMA: dimethylacetamide; Solutol: polyethyleneglycol-15-hydroxystearate; Saline: normal saline), with a dosage of 2 mg/kg and an admin istration concentration of 1 mg/mL. Blood samples were collected via the jugular vein at 5 min, 15 min, 30 min, 1 h, 2 h, 4 h, 6 h, 8 h, and 24 h after admin istration. Approximately 0.25 mL of each sample was collected, anticoagulated with EDTA-K2, placed on ice after collection, and centrifuged to separate plasma within 1 hour (6000 g, 3 min, 2-8°C). Plasma samples were stored in a - 80°Crefrigerator before analys is.
3.3 Result Analys is:Collected samples were detected using LC-MS/MS method. Pharmacokinetic parameters were calculated from blood drug concentration data at different time points using Phoenix WinNonlin 8.2.0 to obtain the average values of in vivo clearance (CL) and AUC0-t. Table 3 CL and AUC of test compounds after intravenous injection in rats

[2] = test system: Kasumi-1 cells; assay: Kasumi-1 cell inhibitory activity (CellTiter-Glo, 5 days); format: cell-based; settings: Homo sapiens, 120 h, 5 days incubation, CellTiter-Glo luminescence
Description: Test compounds were dissolved in DMSO to prep are a 250×final concentration solution. The initial concentration was 10 µM with 3-fold dilution, resulting in a total of ten concentration points. 4 µL of the compound solution was added to 96 µL of cell culture medium to dilute it to 10×the final concentration. On the first day, Kasumi-1 cells (purchased from Precedo) were suspended in cell culture medium at the desired density, 90 µL of the cell suspension was added to a 96-well plate, and 10 µL of 10×compound solution was added for incubation, with a final DMSO concentration of 0.4% in each well. Incubated at 37 °C, 5% CO2 for 5 days. Before measurement after 5 days, the test plate was placed at room temperature, 50 µL of CellTiter-Glo® reagent (purchased from Promega, Cat. No. G7573) was added, mixed on a shaker for 2 minutes to lyse the cells, and incubated at room temperature for 10 minutes to stabilize the […] signal. Luminescence values were recorded using Paradigm, and the response-concentration curve was fitted with Graphpad Pr ism 8.0 to calculate IC50values. The results of each compound are shown in Table2, where A indicates <100nM, B indicates 100-1000nM, and C indicates >1000nM. [formula]

[3] = biological target: T1, METTL3/14 (Homo sapiens, UniProt Q86U44); assay: METTL3/14 methyltransferase activity assay (HTRF); format: biochemical; settings: 10 concentrations, 3-fold dilution from 10 µM
T1 construct: purchased active motif 31570
T1 sequence (Q86U44 whole entry): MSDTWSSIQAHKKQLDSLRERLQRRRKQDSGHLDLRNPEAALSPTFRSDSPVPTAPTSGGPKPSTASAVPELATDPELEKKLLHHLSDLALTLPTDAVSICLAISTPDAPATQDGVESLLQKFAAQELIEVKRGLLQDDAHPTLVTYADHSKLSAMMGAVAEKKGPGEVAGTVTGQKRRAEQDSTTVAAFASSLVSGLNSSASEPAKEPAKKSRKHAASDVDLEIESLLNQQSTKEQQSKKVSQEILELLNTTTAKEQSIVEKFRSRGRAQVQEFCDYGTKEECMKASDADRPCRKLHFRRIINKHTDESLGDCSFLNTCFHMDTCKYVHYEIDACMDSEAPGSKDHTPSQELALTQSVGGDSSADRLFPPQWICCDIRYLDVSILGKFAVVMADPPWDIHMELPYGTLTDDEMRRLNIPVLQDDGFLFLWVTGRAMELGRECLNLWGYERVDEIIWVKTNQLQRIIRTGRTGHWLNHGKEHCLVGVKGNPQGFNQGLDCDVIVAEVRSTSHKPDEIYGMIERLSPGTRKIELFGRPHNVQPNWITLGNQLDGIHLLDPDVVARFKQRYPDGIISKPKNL
T1 sequence (Q9HCE5 whole entry partner): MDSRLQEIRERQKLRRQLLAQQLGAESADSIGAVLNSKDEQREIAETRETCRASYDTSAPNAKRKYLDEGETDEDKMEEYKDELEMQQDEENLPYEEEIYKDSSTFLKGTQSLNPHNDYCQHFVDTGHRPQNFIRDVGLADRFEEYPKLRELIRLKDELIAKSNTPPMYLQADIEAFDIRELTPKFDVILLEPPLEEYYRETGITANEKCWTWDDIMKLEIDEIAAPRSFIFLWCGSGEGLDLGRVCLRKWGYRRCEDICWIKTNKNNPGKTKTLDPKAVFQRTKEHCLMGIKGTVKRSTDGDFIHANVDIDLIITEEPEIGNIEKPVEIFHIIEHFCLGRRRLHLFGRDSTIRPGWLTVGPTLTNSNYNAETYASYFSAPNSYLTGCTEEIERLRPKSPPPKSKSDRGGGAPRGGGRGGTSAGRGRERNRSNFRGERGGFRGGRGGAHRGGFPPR
Description: The final initial concentration of the compound was 10 µM, with 3-fold serial dilution to give a total of 10 concentrations. 100 nL of the compound was transferred to a 384-well plate and centrifuged at 1000 RPM. 2.5 µL of METTL3/14 (active motif, Cat No. 31570) was added to the test wells and incubated at 25°C for 10 min. 2.5 µL of METTL3-Biotin & SAM (GenScript) was added to the test wells andincubated at 25°C for 60 min. 2.5 µL of YTHDF1 (active motif, Cat No. 31608) was added to the test wells and centrifuged at 1000 RPM. 2.5 µL of Streptavidin-Tb (Perkin Elmer Cat No. 61SATLB) & Flag-mede (Perkin Elmer Cat No. 61FG2DLA) was added to the test wells and centrifuged at 1000 RPM. Incubated at 25°C for 60 min. HTRF was measured using a Plate reader. The results of each compound are shown in Table 1, where A+indicates <10nM, A indicates 10-100nM, B indicates 100-1000nM, and C indicates >1000nM.

AUC(0-t) [1] [ng·h/mL]	clearance [1] [mL/min/kg]	IC50 [3] [nM]	SMILES	IC50 [2] [nM]
2180	15.3	< 10	O=C(NCc1ccc2cc(CNCC3CC(F)(F)C3)[nH]c2c1)c1cc(=O)n2cc3c(cc2n1)OCCO3 [Example 24, N-((2-((((3,3-Difluorocyclobutyl)methyl)amino)methyl)-1H-indol-6-yl)methyl)-9-oxo-2,3-dihydro-9H-[1,4]dioxino[2',3':4,5]pyrido[1,2-a]pyrimidine-7-carboxamide]	100 to 1000
–	–	< 10	[2H]C([2H])(NCc1cc2ccc(CNC(=O)c3cc(=O)n4cc5c(cc4n3)OCO5)cc2[nH]1)C12CC(F)(C1)C2 [Example 72, N-((2-((((3-Fluorobicyclo[1.1.1]pentan-1-yl)methyl-d2)amino)methyl)-1H-indol-6-yl)methyl)-8-oxo-8H-[1,3]dioxolo[4',5':4,5]pyrido[1,2-a]pyrimidine-6-carboxamide]	< 100
1440	23	< 10	O=C(NCc1cc2[nH]c(CNCC3CCC3)cc2cc1F)c1cc(=O)n2cc3c(cc2n1)OCO3 [Example 73, N-((2-(((Cyclobutylmethyl)amino)methyl)-5-fluoro-1H-indol-6-yl)methyl)-8-oxo-8H-[1,3]dioxolo[4',5':4,5]pyrido[1,2-a]pyrimidine-6-carboxamide]	100 to 1000
–	–	< 10	O=C(NCc1ccc2cc(CNCC34CC(CO3)C4)[nH]c2c1)c1cc(=O)n2cc3c(cc2n1)OCCO3 [Example 77, N-((2-((((2-oxabicyclo[2.1.1]hexan-1-yl)methyl)amino)methyl)-1H-indol-6-yl)methyl)-9-oxo-2,3-dihydro-9H-[1,4]dioxino[2',3':4,5]pyrido[1,2-a]pyrimidin-7-carboxamide]	100 to 1000
–	–	< 10	O=C(NCc1ccc2cc(CNCC34CC(CO3)C4)[nH]c2c1)c1cc(=O)n2cc3c(cc2n1)OCO3 [Example 84, N-((2-((((2-Oxabicyclo[2.1.1]hexan-1-yl)methyl)amino)methyl)-1H-indol-6-yl)methyl)-8-oxo-8H-[1,3]dioxolo[2',3':4,5]pyrido[1,2-a]pyrimidine-6-carboxamide]	100 to 1000
–	–	10 to 100	O=C(NCc1cc2[nH]c(CNCC3CCC3)cc2cc1F)c1cc(=O)n2cc3c(cc2n1)OCCO3 [Example 85, N-((2-(((Cyclobutylmethyl)amino)methyl)-5-fluoro-1H-indol-6-yl)methyl)-9-oxo-2,3-dihydro-9H-[1,4]dioxino[2',3':4,5]pyrido[1,2-a]pyrimidine-7-carboxamide]	< 100
–	–	10 to 100	O=C(NCc1cc2[nH]c(CNCC34CC(CO3)C4)cc2cc1F)c1cc(=O)n2cc3c(cc2n1)OCCO3 [Example 86, N-((2-((((2-Oxabicyclo[2.1.1]hexan-1-yl)methyl)amino)methyl)-5-fluoro-1H-indol-6-yl)methyl)-9-oxo-2,3-dihydro-9H-[1,4]dioxino[2',3':4,5]pyrido[1,2-a]pyrimidine-7-carboxamide]	100 to 1000
–	–	10 to 100	O=C(NCc1cc2[nH]c(CNCC34CC(CO3)C4)cc2cc1F)c1cc(=O)n2cc3c(cc2n1)OCO3 [Example 87, N-((2-((((2-Oxabicyclo[2.1.1]hexan-1-yl)methyl)amino)methyl)-5-fluoro-1H-indol-6-yl)methyl)-8-oxo-8H-[1,3]dioxolo[2',3':4,5]pyrido[1,2-a]pyrimidine-6-carboxamide]	100 to 1000
1210	28.1	< 10	[2H]C([2H])(NCc1cc2cc(F)c(CNC(=O)c3cc(=O)n4cc5c(cc4n3)OCO5)cc2[nH]1)C12CC(F)(C1)C2 [Example 89, N-((5-Fluoro-2-((((3-fluorobicyclo[1.1.1]pentan-1-yl)methyl-d2)amino)methyl)-1H-indol-6-yl)methyl)-8-oxo-8H-[1,3]dioxolo[2',3':4,5]pyrido[1,2-a]pyrimidine-6-carboxamide]	< 100
1120	28.5	< 10	[2H]C([2H])(NCc1cc2cc(F)c(CNC(=O)c3cc(=O)n4cc5c(cc4n3)OCCO5)cc2[nH]1)C12CC(F)(C1)C2 [Example 94, N-((5-fluoro-2-((((3-fluorobicyclo[1.1.1]pentan-1-yl)methyl-d2)amino)methyl)-1H-indol-6-yl)methyl)-9-oxo-2,3-dihydro-9H-[1,4]dioxino[2',3':4,5]pyrido[1,2-a]pyrimidine-7-carboxamide]	< 100

The next lines start with the compound.

SMILES	AUC(0-t) [1] [ng·h/mL]	clearance [1] [mL/min/kg]	IC50 [3] [nM]	IC50 [2] [nM]
O=C(NCc1ccc2cc(CNCC3CCC3)[nH]c2c1)c1cc(=O)n2cc3c(cc2n1)OCO3 [Example 25, N-((2-(((Cyclobutylmethyl)amino)methyl)-1H-indol-6-yl)methyl)-8-oxo-8H-[1,3]dioxolo[4',5':4,5]pyrido[1,2-a]pyrimidine-6-carboxamide]	1460	22.7	< 10	100 to 1000
[2H]C([2H])(NCc1cc2cc(F)c(CNC(=O)c3cc(=O)n4cc5c(cc4n3)OCO5)cc2[nH]1)C1CCC1 [Example 88, N-((2-(((Cyclobutylmethyl-d2)amino)methyl)-5-fluoro-1H-indol-6-yl)methyl)-8-oxo-8H-[1,3]dioxolo[2',3':4,5]pyrido[1,2-a]pyrimidine-6-carboxamide]	1710	19.1	< 10	< 100
[2H]C([2H])(NCc1cc2cc(F)c(CNC(=O)c3cc(=O)n4cc5c(cc4n3)OCCO5)cc2[nH]1)C1CCC1 [Example 90, N-((2-(((Cyclobutylmethyl-d2)amino)methyl)-5-fluoro-1H-indol-6-yl)methyl)-9-oxo-2,3-dihydro-9H-[1,4]dioxino[2',3':4,5]pyrido[1,2-a]pyrimidine-7-carboxamide]	–	–	< 10	< 100
[2H]C([2H])(NCc1cc2ccc(CNC(=O)c3cc(=O)n4cc5c(cc4n3)OCCO5)cc2[nH]1)C12CC(CO1)C2 [Example 91, N-((2-((((2-Oxabicyclo[2.1.1]hexan-1-yl)methyl-d2)amino)methyl)-1H-indol-6-yl)methyl)-9-oxo-2,3-dihydro-9H-[1,4]dioxino[2',3':4,5]pyrido[1,2-a]pyrimidine-7-carboxamide]	–	–	10 to 100	100 to 1000
[2H]C([2H])(NCc1cc2ccc(CNC(=O)c3cc(=O)n4cc5c(cc4n3)OCO5)cc2[nH]1)C12CC(CO1)C2 [Example 92, N-((2-((((2-Oxabicyclo[2.1.1]hexan-1-yl)methyl-d2)amino)methyl)-1H-indol-6-yl)methyl)-8-oxo-8H-[1,3]dioxolo[4',5':4,5]pyrido[1,2-a]pyrimidine-6-carboxamide]	–	–	10 to 100	100 to 1000
[2H]C([2H])(NCc1cc2cc(F)c(CNC(=O)c3cc(=O)n4cc5c(cc4n3)OCO5)cc2[nH]1)C12CC(CO1)C2 [Example 93, N-((2-((((2-Oxabicyclo[2.1.1]hexan-1-yl)methyl-d2)amino)methyl)-5-fluoro-1H-indol-6-yl)methyl)-8-oxo-8H-[1,3]dioxolo[4',5':4,5]pyrido[1,2-a]pyrimidine-6-carboxamide]	–	–	10 to 100	100 to 1000
[2H]C([2H])(NCc1cc2ccc(CNC(=O)c3cc(=O)n4cc5c(cc4n3)OCCO5)cc2[nH]1)C12CC(F)(C1)C2 [Example 95, N-((2-((((3-fluorobicyclo[1.1.1]pentan-1-yl)methyl-d2)amino)methyl)-1H-indol-6-yl)methyl)-9-oxo-2,3-dihydro-9H-[1,4]dioxino[2',3':4,5]pyrido[1,2-a]pyrimidine-7-carboxamide]	–	–	< 10	< 100
